Reference: patent US20140155429A1, “Treatment of Cognitive Disorders with Certain Alpha-7 Nicotinic Acid Receptor Agonists in Combination with Nicotine” (EnVivo Pharmaceuticals, Inc., priority 2011, published 2014)

Legend:
schizophrenia subjects = assay: Sensory electrophysiological responses (P50 gating, MMN, P300, N100) in schizophrenia subjects; assay type: in vivo, human; conditions: in combination with a tobacco-free nicotine dosage form, greater than compound alone, expected at a daily dose as low as 0.3 mg
Method: These effects are expected at a daily dose as low as 0.3 mg of (R)-7-chloro-N-(quinuclidin-3-yl)benzo[b]thiophene-2-carboxamide hydrochloride.
Impairment of the ability of central nervous system to inhibit irrelevant sensory information has long been used as a model for understanding the deficits of attention seen in schizophrenic subjects. Two approaches to the measurement of this ability have commonly been employed (see (Heinrichs, 2004; Potter et al., 2006; Turetsky et al., 2007; Umbricht and Krljes, 2005) for reviews and meta-analyses): (1) the sensory gating paradigm in which the presentation of one stimulus normally suppresses the response elicited by a stimulus which rapidly follows it. […] (2) the oddball or orienting paradigm in which a rare or unexpected event elicits a diminished response in schizophrenic subjects because attentional resources are inappropriately focused on less salient aspects of the environment.
Two responses are commonly used assess brain activity: (1) the auditory P50 response elicited by the second member of a pair of clicks; and (2) the mismatch negativity (MMN) or N2 response evoked by a rarely occurring pure tone of no instructed relevance to the subject. Abnormalities in both P50 gating and the MMN have been reported in schizophrenic subjects. […]

humans = assay: Procognitive effects in humans at low doses; assay type: in vivo, human; conditions: unexpectedly low doses
From the text: Thus, (R)-7-chloro-N-(quinuclidin-3-yl)benzo[b]thiophene-2-carboxamide and pharmaceutically acceptable salts thereof can be used at unexpectedly low doses improve cognition in individuals suffering from impaired cognition and in healthy individuals (i.e., individuals that are not suffering from an apparent cognitive deficit). For example, it can be used to improve cognition in subjects suffering from Alzheimer's disease, schizophrenia and other disorders such as other neurodegenerative diseases (e.g., Huntington's Disease or Parkinson's Disease) and attention deficit disorder. It can be used to treat certain disorders, e.g., Alzheimer's disease, schizophrenia (e.g., paranoid type, disorganized type, catatonic type, and undifferentiated type), schizophreniform disorder, schizoaffective disorder, delusional disorder, positive symptoms of schizophrenia, negative symptoms of schizophrenia at a daily dose of 3 mg, 2.70 mg, 2.50 mg, 2.25 mg, 2 mg, 1.75 mg, 1.50 mg, 1.25 mg, 1 mg, 0.7, 0.5, 0.3 mg or even 0.1 mg. The compound can be used to improve one or more aspects of cognition, e.g., one or more of: executive function, memory (e.g., working memory), social cognition, visual learning, verbal learning and speed of processing. […]

[1] = Memory improvement at a subclinical dose in combination with an acetylcholinesterase inhibitor; assay type: in vivo; conditions: in combination with an acetylcholinesterase inhibitor also at a subclinical dose
Method: Thus, a subject can experience a benefit (e.g., improved memory or cognition) from a combination of drugs each of which is administered at very low, side-effect reducing or side-effect avoiding dose. Moreover, the combination of drugs may provide a benefit for a wider range or subjects and/or over a longer period of treatment.

Row | Structure (SMILES) | sensory electrophysiological responses which correlate with improved cognitive and functional performance (schizophrenia subjects) | procognitive effects (humans) | memory [1]
1 | Cl.O=C(N[C@H]1CN2CCC1CC2)c1cc2cccc(Cl)c2s1 [(R)-7-chloro-N-(quinuclidin-3-yl)benzo[b]thiophene-2-carboxamide hydrochloride] | can improve sensory electrophysiological responses | – | –
2 | O=C(N[C@H]1CN2CCC1CC2)c1cc2cccc(Cl)c2s1 [(R)-7-chloro-N-(quinuclidin-3-yl)benzo[b]thiophene-2-carboxamide] | – | can have procognitive effects in humans at unexpectedly low doses | memory can be improved
